Data reported in PubChem BioAssay (NCI).
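The compound was tested at five concentrations on cells cultured in 96-well plates, with a 48-hour exposure period. At the TGI there is no net growth.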

What was measured:
Experiment in all cases: NCI tumour cell line growth inhibition, 48 h
[1] = system: SW-620 colon
[2] = system: PC-3 prostate
[3] = system: HT29 colon
[4] = system: SF-539 CNS
[5] = system: IGROV1 ovarian
[6] = system: COLO 205 colon
[7] = system: HOP-92 NSCLC
[8] = system: M14 melanoma
[9] = system: CAKI-1 renal
[10] = system: OVCAR-3 ovarian
[11] = system: SK-MEL-28 melanoma
[12] = system: CCRF-CEM leukemia
[13] = system: HOP-62 NSCLC
[14] = system: OVCAR-8 ovarian
[15] = system: HCC-2998 colon
[16] = system: UACC-62 melanoma
[17] = system: A549 NSCLC
[18] = system: SK-OV-3 ovarian
[19] = system: EKVX NSCLC
[20] = system: MDA-N
[21] = system: SF-295 CNS
[22] = system: OVCAR-5 ovarian
[23] = system: MALME-3M melanoma
[24] = system: SF-268 CNS
[25] = system: SK-MEL-2 melanoma
[26] = system: LOX IMVI melanoma
[27] = system: RPMI-8226 leukemia
[28] = system: KM12 colon
[29] = system: MOLT-4 leukemia
[30] = system: K-562 leukemia
[31] = system: T-47D breast
[32] = system: SR leukemia
[33] = system: MDA-MB-435
[34] = system: 786-0 renal
[35] = system: NCI-H23 lung
[36] = system: UACC-257 melanoma
[37] = system: BT-549 breast
[38] = system: TK-10 renal
[39] = system: NCI/ADR-RES ovarian
[40] = system: HCT-15 colon
[41] = system: ACHN renal
[42] = system: HCT-116 colon
[43] = system: SNB-75 CNS
[44] = system: MDA-MB-231 breast
[45] = system: U251 CNS
[46] = system: SN12C renal
[47] = system: SK-MEL-5 melanoma
[48] = system: MCF7 breast
[49] = system: DU-145 prostate
[50] = system: RXF 393 renal
[51] = system: NCI-H226 lung
[52] = system: HS 578T breast
[53] = system: UO-31 renal
[54] = system: NCI-H460 lung
[55] = system: SNB-19 CNS
[56] = system: A498 renal
[57] = system: OVCAR-4 ovarian

Measured: TGI

O=C(O)COc1cc(-c2ccccc2F)nc2cc3c(cc12)OCO3
not listed: [52] | [53] | [54] | [55] | [56] | [57]
> 100 µM: all other assays above

CC1OC1P(=O)(O)O (stereo not drawn)
not listed: [4] | [8] | [23] | [39] | [51]
> 100 µM: all other assays above
